# Data published in patent US10238623B2, “C14-hydroxyl esterified amino acid derivative of triptolide, and preparation method and use thereof” (HANGZHOU WEBEN PHARMACEUTICALS INC, priority 2015, dated 2019).
# Tests used:
# Jurkat = experiment: MTT growth inhibition, Jurkat cells, 72 h; assay type: cell-based, human
# Experimental: (§1) 5000 well-grown leukemia cells or normal human blood cells were taken and seeded into wells of a 96-well cell culture plate. The medium was 1640 cell medium containing 10% fetal bovine serum. 14-D-Valine-TPL with different concentrations was added, and after being uniformly mixed, the plate was placed in a carbon dioxide (5% CO2) cell incubator, and incubated at 37° C. for 72 hours. The concentration of live cells was then determined using the MTT assay. In this experiment, the cell viability in the control group (without the compound treatment) was set to be 100%, and the cell viability (%) after the action of the compound the half maximal growth inhibitory concentration of leukemia cells at 72 hours (IC50 value at 72 hours) and the therapeutic window index were calculated. Therapeutic window index=IC50 value of normal blood cells/IC50 value of leukemia cells. […] A larger therapeutic window indicates a better selectivity of the compound for tumor cells.
# (§2) 5000 well-grown leukemia cells were taken and seeded into wells of a 96-well cell culture plate. The medium was 1640 cell medium containing 10% fetal bovine serum. 14-D-Valine-TPL with different concentrations was added, and after being uniformly mixed, the plate was placed in a carbon dioxide (5% CO2) cell incubator, and incubated at 37° C. for 72 hours. The concentration of live cells was then determined using the MTT assay. In this experiment, the cell viability in the control group (without the compound treatment) was set to be 100%, and the cell viability (%) after the action of the compound and the half maximal growth inhibitory concentration of leukemia cells at 72 hours (IC50 value at 72 hours) were calculated.
# as §2, with “well-grown lymphocytes” for “well-grown leukemia cells”
# CEM = experiment: MTT growth inhibition, CEM cells, 72 h; assay type: cell-based, human
# Experimental: as §1, §2
# as §2, with “well-grown lymphocytes” for “well-grown leukemia cells”
# Molt-4 = experiment: MTT growth inhibition, Molt-4 cells, 72 h; assay type: cell-based, human; conditions: for Therapeutic window: IC50 of normal blood cells/IC50 of Molt-4
# Experimental: as §1, §2
# as §2, with “well-grown lymphocytes” for “well-grown leukemia cells”
# Sup-B15 = experiment: MTT growth inhibition, Sup-B15 cells, 72 h; assay type: cell-based, human
# Experimental: as §1, §2
# as §2, with “well-grown lymphocytes” for “well-grown leukemia cells”
# normal human blood cells = experiment: MTT assay, normal human blood cells, 72 h; assay type: cell-based; conditions: Homo sapiens, 72 h, Normal Blood Cell, Overall, MTT, read-out: IC50
# Experimental: Leukemia cell strains: Sup-B15 (Ph+acute lymphoblastic leukemia), CEM (acute lymphoblastic leukemia, ALL), and Molt-4 (acute lymphoblastic leukemia, ALL). Normal blood cell samples: peripheral blood from healthy volunteers. • Primary reagent: 14-D-Valine-TPL of the invention. Primary instruments: cell incubator and microplate reader. (2) Experimental Method
# as §1
# human leukemia = human leukemia (18/45); cited from earlier work
# L615 leukemia = conditions: mouse, in vivo; cited from earlier work
# [1] = oral and intravenous injection; cited from earlier work
compound,measurement,setting,value
"CC(C)[C@]12O[C@H]1[C@@H]1O[C@]13[C@]1(O[C@H]1C[C@H]1C4=C(CC[C@@]13C)C(=O)OC4)[C@@H]2O [TPL, Triptolide]",IC50,"Jurkat; Homo sapiens, Jurkat, MTT, 72 hours, read-out: IC50",33.8 nM
same,Therapeutic window,Jurkat; IC50 of normal blood cells/IC50 of Jurkat,0.64
same,IC50,"CEM; Homo sapiens, CCRF-CEM, CEM, MTT, 72 hours, read-out: IC50",23.3 nM
same,Therapeutic window,CEM; IC50 of normal blood cells/IC50 of CEM,0.93
same,IC50,"Molt-4; Homo sapiens, Molt-4, MTT, 72 hours, read-out: IC50",10.7 nM
same,Therapeutic window,Molt-4,2.03
same,Therapeutic window,Molt-4; listed as triptolide,2.0
same,IC50,"Sup-B15; Homo sapiens, Sup-B15, MTT, 72 hours, read-out: IC50",23.2 nM
same,Therapeutic window,Sup-B15; IC50 of normal blood cells/IC50 of Sup-B15,0.94
same,IC50,normal human blood cells,21.7 nM
same,complete remission rate,human leukemia,up to 40%
same,survival time of L615 leukemia mice,L615 leukemia,significantly prolong the survival time
same,elimination half-life (in words),[1],short elimination half-life
